Laboratory results published in patent US11517754B2 (priority 2017, dated 2022).

Key:
[1] = system: OVA-specific CD8+ TCR transgenic T-cells; experiment: Pancreatic auto-antigen cross-presentation: proliferation of adoptively transferred OVA-specific CD8+ T cells in RIP-OVA mice under PNES; type: in vivo, RIP-OVA transgenic mice; settings: PNES 450 μA, 10 Hz, 2 mn, 3 times/day; FIG. 3C
[2] = system: catecholaminergic fibers projecting to pancreatic LN; set-up: species or system tdTomatoTH-Cre mice

| Compound | Effect of PNES on auto-antigen cross-presentation (T cell proliferation relative to sham) in mice treated with propranolol [1] | Field Action Potentials (FAP) peak amplitude after addition of TTX to the medium [2] |
| --- | --- | --- |
| CC(C)NCC(O)COc1cccc2ccccc12 (centres unmarked) [propranolol] | β-AR-dependent |  |
| NC1=N[C@H](O)[C@H]2[C@H]3O[C@]4(O)O[C@@H]([C@@H](O)[C@@]2(N1)[C@@H]4O)[C@]3(O)CO [tetrodotoxin] |  | inhibited |
